The values below come from patent publication US20250002470A1, “NITROGEN-CONTAINING COMPOUND, PREPARATION METHOD THEREFOR AND APPLICATION THEREOF” (ZHEJIANG AIXPLORER BIOTECH CO., LTD., priority 2021, published 2025).

This assay addresses T1, NLRP3 (Homo sapiens, UniProt Q96P20).
T1 construct: endogenous in cells; host or cells: THP-1 cells (IFN-γ differentiated, LPS primed, ATP stimulated)
The experiment in a line: IL-1β (interleukin-1β) secretion in IFN-γ-differentiated, LPS/ATP-stimulated THP-1 cells (half inhibition rate of NLRP3). To be noted: IFN-γ 25 ng/mL, LPS 50 ng/mL, ATP 5 mM. The assay is classed as cell-based. The method, then:
Remove THP-1 cells from liquid nitrogen and place in a 37° C. water bath until ice melt. Add the cells to 5 mL of warm cell culture medium and centrifuge at 1,000 rpm for 5 min. Discard the supernatant and resuspend and culture in a new cell culture medium.
THP-1 cells are cultured in the culture medium and passaged every 2-3 days.
2.1.1 Add 100 μL of cell suspension per well to the cell plate and incubate the cell plate in a 37° C., 5% CO2 incubator for 24 hours.
2.2.1 Discard the supernatant of IFN-γ differentiation after differentiation treatment. Add 100 μL of serum-free medium containing LPS (final concentration of 50 ng/mL) to the cell plate. The cell plates were incubated in a 37° C., 5% CO2 incubator for 4 h.
Place the cell plate in an incubator at 37° C. and 5% CO2 for 1 hour.
2.2.3 Add 20 μL of 6×ATP per well according to the plate map (final concentration 5 mM) and incubate the cell plate in a 37° C., 5% CO2 incubator for 1 h. Collect the supernatant (60 μL) and store at −20° C.
The capture antibody mAb Mt175 is diluted to 2 μg/mL with PBS (1:250) and added to the cell plate at 15 μL per well. Keep the plate overnight at 4° C.
2.4.1 Discard the coated antibody and wash 4 times with PBST.
2.4.3 Discard the blocking buffer and wash 4 times with PBST.
2.4.4 Add 25 μL of 2.2.3 collected supernatant sample per well and incubate for 2 h at room temperature.
2.4.5 Discard the samples and wash 4 times with PBST.
2.4.6 Add mAb7P10-biotin (concentration 0.5 ug/mL) to blocking buffer, add 15 μL per well to the cell plate, and incubate for 1 hour at room temperature.
2.4.7 Discard the antibody and wash 4 times with PBST.
2.4.8 Streptavidin-HRP was diluted 1:1000 in blocking buffer, 15 μL per well was added to the cell plate, and incubated for 1 hour at room temperature.
2.4.9 Discard streptavidin-HRP and wash 4 times with PBST.
2.4.10 Add 25 μL of HRP substrate (Surmodics-TMBW-0100-01) per well and incubate the cell plate until a blue product appears.
2.4.11 Add 25 μL of stop solution (Surmodics-LSTP-0100-01) per well, and the blue product turns yellow.
2.4.12 Read the cell plate at 450 nm with a microplate reader.

T1 sequence (Q96P20 whole entry): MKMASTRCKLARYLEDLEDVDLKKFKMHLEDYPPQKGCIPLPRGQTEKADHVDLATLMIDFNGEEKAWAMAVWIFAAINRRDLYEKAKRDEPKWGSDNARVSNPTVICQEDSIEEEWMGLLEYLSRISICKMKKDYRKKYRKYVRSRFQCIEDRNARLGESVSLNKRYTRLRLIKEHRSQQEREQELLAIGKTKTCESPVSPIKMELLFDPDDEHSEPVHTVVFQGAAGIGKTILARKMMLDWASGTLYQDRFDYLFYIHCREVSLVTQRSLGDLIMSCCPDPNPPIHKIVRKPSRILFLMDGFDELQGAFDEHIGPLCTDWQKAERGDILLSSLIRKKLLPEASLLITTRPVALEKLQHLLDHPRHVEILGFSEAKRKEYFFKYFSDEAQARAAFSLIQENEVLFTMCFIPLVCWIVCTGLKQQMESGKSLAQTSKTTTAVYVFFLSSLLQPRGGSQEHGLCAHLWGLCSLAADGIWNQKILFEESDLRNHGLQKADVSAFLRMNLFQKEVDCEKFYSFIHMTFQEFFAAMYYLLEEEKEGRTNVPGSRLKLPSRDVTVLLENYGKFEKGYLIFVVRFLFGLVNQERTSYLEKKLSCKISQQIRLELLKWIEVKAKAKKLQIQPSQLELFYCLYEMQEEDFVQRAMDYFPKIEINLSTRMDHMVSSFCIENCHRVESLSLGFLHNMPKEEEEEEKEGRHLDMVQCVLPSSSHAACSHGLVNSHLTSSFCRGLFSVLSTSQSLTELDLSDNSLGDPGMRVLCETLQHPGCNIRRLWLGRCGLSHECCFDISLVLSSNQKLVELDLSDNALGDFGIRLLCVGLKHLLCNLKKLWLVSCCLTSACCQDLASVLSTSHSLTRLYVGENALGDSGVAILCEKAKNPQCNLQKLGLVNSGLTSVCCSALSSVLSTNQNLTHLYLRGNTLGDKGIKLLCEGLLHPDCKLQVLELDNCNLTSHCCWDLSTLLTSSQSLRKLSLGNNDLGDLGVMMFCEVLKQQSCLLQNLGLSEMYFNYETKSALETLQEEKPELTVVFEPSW

As usually defined, the IC50 is the concentration needed to halve the response being measured. The low end stands for higher potency, the high end for lower potency. `Cc1cc(C)c(-c2cnc(N[C@@H]3CCCN(CC(=O)O)C3)nn2)c(O)c1` [Embodiment 3, (R)-2-(3-((6-(2-hydroxy-4,6-dimethylphenyl)-1,2,4-triazin-3-yl)amino)piperidin-1-yl)acetic acid]: the IC50 turned out to be 53.5 nM. As for `CN1CCC[C@@H](Nc2nnc(-c3ccc(Cl)cc3O)c3ccncc23)C1` [Embodiment 128], the figure is 3 nM; as for `Cc1nc(N[C@@H]2CCC[C@@H](O)C2)nnc1-c1ccc(C(F)(F)F)cc1O` [Embodiment 36, 2-(3-(((1R,3R)-3-hydroxycyclohexyl)amino)-5-methyl-1,2,4-triazin-6-yl)-5-(trifluoromethyl)phenol], 54.2 nM. Turning to `OCCN1CCC[C@@H](Nc2nnc(-c3ccc(Cl)cc3O)c3cc(F)ccc23)C1` [Embodiment 154], the IC50 was found to be 3.2 nM.

Take `CN1CCC[C@@H](Nc2nnc(-c3ccc(C(F)(F)F)cc3O)c3cc[nH]c23)C1` [Embodiment 20]: the concentration for half-maximal inhibition (IC50) came out at 21.3 nM. In the case of `Cc1nc(N[C@@H]2CCCN(C3CC3)C2)nnc1-c1ccc(C(F)(F)F)cc1O` [Embodiment 141] it was 1.5 nM; in that of `Cc1cc(C)c(-c2cnc(N[C@@H]3CCCN(CC(=O)N[C@@H](C)CO)C3)nn2)c(O)c1` [Embodiment 24, 2-((R)-3-((6-(2-hydroxy-4,6-dimethylphenyl)-1,2,4-triazin-3-yl)amino)piperidin-1-yl)-N—((S)-1-hydroxypropyl-2-yl)acetamide], 193 nM; in that of `CN1CCC[C@@H](Nc2nnc(-c3ccc(C(F)(F)F)cc3O)c3cocc23)C1` [Embodiment 109], 40.6 nM. The molecule `Cc1nc(N[C@@H]2CCCN(C(C)C)C2)nnc1-c1ccc(C(F)(F)F)cc1O` [Embodiment 144] displayed an IC50 of 1.8 nM.

`C[C@]1(O)C[C@@H](Nc2nnc(-c3ccc(C(F)(F)F)cc3O)c3ncccc23)C1` [Embodiment 76, 2-(5-(((cis)-3-hydroxy-3-methylcyclobutyl)amino)pyrido[2,3-d]pyridazin-8-yl)-5-(trifluoromethyl)phenol] showed an IC50 of 11.3 nM. As for `Cc1cc(Cl)cc(O)c1-c1nnc(N[C@@H]2CCCN(C)C2)c2ccccc12` [Embodiment 29], the figure is 5.1 nM; as for `CN1CCC[C@@H](Nc2nnc(-c3ccc(C(F)(F)F)cc3O)c3cccc(F)c23)C1` [Embodiment 119], 5 nM; as for `Cc1cc(C)c(-c2cnc(N[C@@H]3CCCN(C)C3)nn2)c(O)c1` [Embodiment 108], 10.9 nM.

`CN1CCC[C@@H](Nc2nnc(-c3ccc(C(F)(F)F)cc3O)c3cc(F)ccc23)C1` [Embodiment 121]: inhibition was half-maximal at 1.2 nM (IC50). In the case of `CN1CCC[C@@H](Nc2ncc(-c3c(O)cc(C(F)(F)F)cc3Cl)nn2)C1` [Embodiment 107] it was 29.2 nM; in that of `COc1ccc2c(-c3ccc(C(F)(F)F)cc3O)nnc(N[C@@H]3CCCN(C)C3)c2c1` [Embodiment 118], 2.9 nM; in that of `CN1CCC[C@@H](Nc2nnc(-c3ccc(Cl)cc3O)c3ccccc23)C1` [Embodiment 28, (R)-5-chloro-2-(4-((1-methylpiperidin-3-yl)amino)phthalazin-1-yl)phenol], 1.1 nM. In the case of `Cc1nc(N[C@@H]2CCCN(CC(N)=O)C2)nnc1-c1ccc(C(F)(F)F)cc1O` [Embodiment 42, (R)-2-(3-((6-(2-hydroxy-4-(trifluoromethyl)phenyl)-5-methyl-1,2,4-triazin-3-yl)amino)piperidin-1-yl) acetamide] it was 62.7 nM; in that of `CN1CCC[C@@H](Nc2nnc(-c3ccc(C(F)(F)F)cc3O)c3[nH]ccc23)C1` [Embodiment 21], 49.4 nM. `CN1CCC[C@@H](Nc2nnc(-c3ccc(C(F)(F)F)cc3O)c3ccn(C)c23)C1` [Embodiment 113] had an IC50 of 16.1 nM. In the case of `Cc1cc(Cl)cc(O)c1-c1cnc(N[C@@H]2CCCN(C)C2)nn1` [Embodiment 11, (R)-5-chloro-3-methyl-2-(3-((1-methylpiperidin-3-yl)amino)-1,2,4-triazin-6-yl)phenol] it was 4 nM; in that of `C[C@]1(O)C[C@@H](Nc2nnc(-c3ccc(C(F)(F)F)cc3O)c3ccncc23)C1` [Embodiment 77, 2-(4-(((cis)-3-hydroxy-3-methylcyclobutyl)amino)pyrido[3,4-d]pyridazin-1-yl)-5-(trifluoromethyl)phenol], 19.4 nM.

In turn, `Cc1cc(N[C@@H]2CCCN(C)C2)nnc1-c1ncc(C(F)(F)F)cc1O` [Embodiment 12, (R)-2-(4-methyl-6-((1-methylpiperidin-3-yl)amino)pyridazin-3-yl)-5-(trifluoromethyl)pyridin-3-ol] registered a concentration for half-maximal inhibition (IC50) of 31.1 nM. As for `Cc1cc(C)c(-c2cnc(N[C@@H]3CCCN(CC(N)=O)C3)nn2)c(O)c1` [Embodiment 23, (R)-2-(3-((6-(2-hydroxy-4,6-dimethylphenyl)-1,2,4-triazin-3-yl)amino)piperidin-1-yl)acetamide], the figure is 376 nM; as for `Cc1nc(N[C@@H]2CCCN(C)C2)nnc1-c1ccc(Cl)cc1O` [Embodiment 7, (R)-5-Chloro-2-(5-methyl-3-((1-methylpiperidin-3-yl)amino)-1,2,4-triazin-6-yl)phenol], 1.2 nM. In the case of `Cc1cc(C)c(-c2cnc(N[C@@H]3CCCN(C(C)CO)C3)nn2)c(O)c1` (stereo partly drawn) [Embodiment 22, 2-(3-(((3R)-1-(1-hydroxypropyl-2-yl)piperidin-3-yl)amino)-1,2,4-triazin-6-yl)-3,5-dimethylphenol], inhibition was half-maximal at 24 nM (IC50). In turn, `Oc1cc(C(F)(F)F)cc(F)c1-c1nnc(N[C@@H]2CCCC[C@H]2O)c2ncccc12` [Embodiment 140] showed a half-inhibitory concentration (IC50) of 9.5 nM. In the case of `CN1CCC[C@@H](Nc2nnc(-c3ccc(C(F)(F)F)cc3O)c3ccoc23)C1` [Embodiment 18, (R)-2-(7-((1-methylpiperidin-3-yl)amino)furo[2,3-d]pyridazin-4-yl)-5-(trifluoromethyl)phenol] it was 5.7 nM; in that of `CN1CCC[C@@H](Nc2nnc(-c3ccc(C(F)(F)F)cc3O)c3occc23)C1` [Embodiment 15, (R)-2-(4-((1-methylpiperidin-3-yl)amino)furo[2,3-d]pyridazin-7-yl)-5-(trifluoromethyl)phenol], 28 nM. In the case of `Oc1cc(C(F)(F)F)ccc1-c1nnc(N[C@@H]2CCCC[C@H]2O)c2c1CCC2` [Embodiment 81, 2-(4-(((1R,2R)-2-hydroxycyclohexyl)amino)-6,7-dihydro-5H-cyclopenta[d]pyridazin-1-yl)-5-(trifluoromethyl)phenol] it was 34.8 nM; in that of `C[C@]1(O)C[C@@H](Nc2nnc(-c3ccc(C(F)(F)F)cc3O)c3cc(F)ccc23)C1` [Embodiment 138], 4.7 nM; in that of `C[C@]1(O)C[C@@H](Nc2nnc(-c3ccc(C(F)(F)F)cc3O)c3c2CCC3)C1` [Embodiment 82, 2-(4-(((cis)-3-hydroxy-3-methylcyclobutyl)amino)-6,7-dihydro-5H-cyclopenta[d]pyridazin-1-yl)-5-(trifluoromethyl)phenol], 47.4 nM. In the case of `Cc1nc(N[C@@H]2CCCN(C3CCC3)C2)nnc1-c1ccc(C(F)(F)F)cc1O` [Embodiment 142] it was 11.3 nM; in that of `CN1CCC[C@@H](Nc2nnc(-c3ccc(C(F)(F)F)cc3O)c3c2C(F)(F)CC3)C1` [Embodiment 112], 2 nM; in that of `Cc1nc(N[C@@H]2CCCN(C(C)CO)C2)nnc1-c1ncc(C(F)(F)F)cc1O` (stereo partly drawn) [Embodiment 54, 2-(3-(((3R)-1-(1-hydroxypropyl-2-yl)piperidin-3-yl)amino)-5-methyl-1,2,4-triazin-6-yl)-5-(trifluoromethyl)pyridin-3-ol], 46.4 nM.

`CN1CCC[C@@H](Nc2nnc(-c3ccc(C(F)(F)F)cc3O)c3ccncc23)C1` [Embodiment 31, (R)-2-(4-((1-methylpiperidin-3-yl)amino)pyrido[3,4-d]pyridazin-1-yl)-5-(trifluoromethyl)phenol] displayed a concentration for half-maximal inhibition (IC50) of 2.2 nM.

Molecule `CN1CCC[C@@H](Nc2nnc(-c3ccc(Cl)cc3O)c3cccnc23)C1` [Embodiment 123] returned an IC50 of 5.47 nM. In the case of `CN1CCC[C@@H](Nc2nnc(-c3ccc(C(F)(F)F)cc3O)c3c2ccn3C)C1` [Embodiment 114] it was 31 nM; in that of `CN1CCC[C@@H](Nc2nnc(-c3ccc(C(F)(F)F)cc3O)c3ccc(F)cc23)C1` [Embodiment 120], 4.1 nM; in that of `Cc1nc(N[C@@H]2CCCN(CC3(O)CC3)C2)nnc1-c1ccc(C(F)(F)F)cc1O` [Embodiment 134], 14 nM. As for `CN1CCC[C@@H](Nc2nnc(-c3ccc(Cl)cc3O)c3cnccc23)C1` [Embodiment 129], the figure is 3.8 nM.
